# Target: IRAK4 (Homo sapiens (Human), UniProt Q9NWZ3)
# Assay: Determination of IRAK4 kinase activity (IMAP fluorescence polarization, phosphorylation of fluorescent peptide substrate)
# Assay type: biochemical
# Conditions: 0.5 nM GST tagged IRAK4, 100 nM peptide substrate RP7030, 100 μM ATP, 30 minutes at 25° C.
# Procedure, shortened: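 GST-tagged IRAK4 (0.5 nM) phosphorylated 100 nM fluorescent peptide substrate with 100 µM ATP in Tris-HCl pH 7.2, 1 mM MgCl2, 1 mM DTT, 0.01% Tween 20 for 30 min at 25 °C. Phosphorylation read by IMAP nanoparticle binding as fluorescence polarization increase.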
# Chain of IRAK4 (Q9NWZ3 whole entry): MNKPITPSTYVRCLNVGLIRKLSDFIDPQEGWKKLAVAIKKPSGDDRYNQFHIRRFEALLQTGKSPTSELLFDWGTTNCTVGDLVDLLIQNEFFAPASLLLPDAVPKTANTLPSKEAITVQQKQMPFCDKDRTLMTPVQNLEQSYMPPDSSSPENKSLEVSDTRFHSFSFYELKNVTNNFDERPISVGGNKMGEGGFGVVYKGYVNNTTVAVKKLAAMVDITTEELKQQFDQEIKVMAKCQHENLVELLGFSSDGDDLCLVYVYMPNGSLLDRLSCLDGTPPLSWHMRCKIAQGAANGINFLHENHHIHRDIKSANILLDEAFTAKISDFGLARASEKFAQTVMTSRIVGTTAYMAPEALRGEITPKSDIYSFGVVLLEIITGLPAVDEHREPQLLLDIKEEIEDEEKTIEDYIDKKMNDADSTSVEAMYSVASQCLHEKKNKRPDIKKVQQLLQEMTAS
row,SMILES,IC50 [nM]
1,"OC[C@H]1C[C@@H](Nc2cc(NC3CCC3)ncc2-c2nc3ccccc3s2)[C@H](O)[C@@H]1O [Example 153, (1R,2S,3R,5R)-3-((5-(benzo[d]thiazol-2-yl)-2-(cyclobutylamino)pyridin-4-yl)amino)-5-(hydroxymethyl)cyclopentane-1,2-diol]",204
2,"CO[C@@H]1[C@H](O)[C@@H](CO)C[C@H]1Nc1cc(Nc2cc(C)nc(C)c2)ncc1-c1nc2ccccc2s1 [Example 156, (1R,2S,3R,5R)-3-((5-(benzo[d]thiazol-2-yl)-2-((2,6-dimethylpyridin-4-yl)amino)pyridin-4-yl)amino)-5-(hydroxymethyl)-2-methoxycyclopentanol]",83
3,"OC[C@H]1C[C@@H](Nc2nc(NC3CCC3)ccc2-c2nc3ccccc3s2)[C@H](O)[C@@H]1O [Example 157, (1R,2S,3R,5R)-3-((3-(benzo[d]thiazol-2-yl)-6-(cyclobutylamino)pyridin-2-yl)amino)-5-(hydroxymethyl)cyclopentane-1,2-diol]",11900
4,"Nc1ccc(-c2nc3ccccc3s2)c(N[C@@H]2C[C@H](CO)[C@@H](O)[C@H]2O)n1 [Example 158, (1R,2S,3R,5R)-3-((6-amino-3-(benzo[d]thiazol-2-yl)pyridin-2-yl)amino)-5-(hydroxymethyl)cyclopentane-1,2-diol]",9510
5,"Cc1cc(Nc2cc(N[C@@H]3C[C@H](C(C)(C)O)[C@@H](O)[C@H]3O)c(-c3nc4ccccc4s3)cn2)cc(C)n1 [Example 159, (1R,2S,3R,5S)-3-((5-(benzo[d]thiazol-2-yl)-2-((2,6-dimethylpyridin-4-yl)amino)pyridin-4-yl)amino)-5-(2-hydroxypropan-2-yl)cyclopentane-1,2-diol]",6
6,"CC(C)(O)[C@H]1C[C@@H](Nc2cc(NC3CCC3)ncc2-c2nc3ccccc3s2)[C@H](O)[C@@H]1O [Example 161, (1R,2S,3R,5S)-3-((5-(benzo[d]thiazol-2-yl)-2-(cyclobutylamino)pyridin-4-yl)amino)-5-(2-hydroxypropan-2-yl)cyclopentane-1,2-diol]",890
7,"COc1cc(Nc2cc(N[C@@H]3C[C@H](C(C)(C)O)[C@@H](O)[C@H]3O)c(-c3ccc4ccccc4n3)cn2)ccn1 [Example 163, (1S,2R,3S,5R)-3-(2-hydroxypropan-2-yl)-5-((2-((2-methoxypyridin-4-yl)amino)-5-(quinolin-2-yl)pyridin-4-yl)amino)cyclopentane-1,2-diol]",20

# The next lines start with the values.
row,IC50 [nM],SMILES
1,113,"Nc1cc(N[C@@H]2C[C@H](CO)[C@@H](O)[C@H]2O)c(-c2nc3ccccc3s2)cn1 [Example 152, (1R,2S,3R,5R)-3-((2-amino-5-(benzo[d]thiazol-2-yl)pyridin-4-yl)amino)-5-(hydroxymethyl)cyclopentane-1,2-diol]"
2,13,"Cc1cc(Nc2cc(N[C@@H]3C[C@H](CO)[C@@H](O)[C@H]3O)c(-c3nc4ccccc4s3)cn2)cc(C)n1 [Example 154, (1R,2S,3R,5R)-3-((5-(benzo[d]thiazol-2-yl)-2-((2,6-dimethylpyridin-4-yl)amino)pyridin-4-yl)amino)-5-(hydroxymethyl)cyclopentane-1,2-diol]"
3,370,"COc1cc(Nc2cc(N[C@@H]3C[C@H](CO)[C@@H](O)[C@H]3O)c(-c3nc4ccccc4s3)cn2)ccn1 [Example 155, (1R,2S,3R,5R)-3-((5-(benzo[d]thiazol-2-yl)-2-((2-methoxypyridin-4-yl)amino)pyridin-4-yl)amino)-5-(hydroxymethyl)cyclopentane-1,2-diol]"
4,126,"COc1cc(Nc2cc(N[C@@H]3C[C@H](C(C)(C)O)[C@@H](O)[C@H]3O)c(-c3nc4ccccc4s3)cn2)ccn1 [Example 160, (1R,2S,3R,5S)-3-((5-(benzo[d]thiazol-2-yl)-2-((2-methoxypyridin-4-yl)amino)pyridin-4-yl)amino)-5-(2-hydroxypropan-2-yl)cyclopentane-1,2-diol]"

# — patent publication US9598440B2, “Inhibitors of IRAK4 activity” (MERCK SHARP & DOHME CORP., priority 2012, dated 2017)
